Test results from the supplement of paper PMC10307832.

Experiments:
Assay in all cases: relative viability (nuclei count vs DMSO), 5 days (fraction); higher = more cells survive
[1] = compound: O=C(/C=C/c1ccccc1)NC(NC(=S)Nc1cccc2cccnc12)C(Cl)(Cl)Cl [Salubrinal] + O=C(CCCCCCC(=O)Nc1ccccc1)NO [Vorinostat] (partner 1 µM)
Summary of the method: (§1)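 Lung cancer cell lines were seeded in 1536-well plates and dosed by pin tool the next day, with either a single drug or a fixed anchor-drug dose combined with five library-drug doses (not always all listed) spaced in √10 steps. Five days later, one step fixed the cells and stained their nuclei (final 0.05% Triton X-100, 1% formaldehyde, 1 ug/ml Hoechst), and nuclei were counted on 4× images. Relative viability is the nuclei count in treated wells divided by the count in vehicle wells, and each value is the median of duplicate plates.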

[2] = compound: O=C(/C=C/c1ccccc1)NC(NC(=S)Nc1cccc2cccnc12)C(Cl)(Cl)Cl [Salubrinal] + COc1cccc2cc(-c3nc([C@H]4CC[C@H](C(=O)O)CC4)n4ncnc(N)c34)[nH]c12 [OSI-027] (partner 0.5 µM)
Summary of the method: as §1

[3] = compound: O=C(/C=C/c1ccccc1)NC(NC(=S)Nc1cccc2cccnc12)C(Cl)(Cl)Cl [Salubrinal] + C[C@]1(O)C[C@@H](c2nc(-c3ccc4ccc(-c5ccccc5)nc4c3)c3c(N)nccn32)C1 [Linsitinib] (partner 1 µM)
Summary of the method: as §1

[4] = compound: O=C(/C=C/c1ccccc1)NC(NC(=S)Nc1cccc2cccnc12)C(Cl)(Cl)Cl [Salubrinal] + Cc1nc(NC(=O)N2CCC[C@H]2C(N)=O)sc1-c1ccnc(C(C)(C)C(F)(F)F)c1 [Alpelisib] (partner 2 µM)
Summary of the method: as §1

Cell Line	relative viability ([1]; first compound 0.08 µM)	relative viability ([1]; first compound 0.253 µM)	relative viability ([1]; first compound 0.8 µM)	relative viability ([1]; first compound 2.53 µM)	relative viability ([1]; first compound 8 µM)	relative viability ([2]; first compound 0.08 µM)	relative viability ([2]; first compound 0.253 µM)	relative viability ([2]; first compound 0.8 µM)	relative viability ([2]; first compound 2.53 µM)	relative viability ([2]; first compound 8 µM)	relative viability ([3]; first compound 0.08 µM)	relative viability ([3]; first compound 0.253 µM)	relative viability ([3]; first compound 0.8 µM)	relative viability ([3]; first compound 2.53 µM)	relative viability ([3]; first compound 8 µM)	relative viability ([4]; first compound 0.08 µM)	relative viability ([4]; first compound 0.253 µM)	relative viability ([4]; first compound 0.8 µM)	relative viability ([4]; first compound 2.53 µM)	relative viability ([4]; first compound 8 µM)
HCC-78	0.473	0.446	0.472	0.451	0.441	0.363	0.364	0.435	0.362	0.361	0.59	0.558	0.796	0.481	0.508	0.345	0.377	0.349	0.307	0.316
LOU-NH91	0.933	0.925	1.08	0.903	0.841	0.721	0.708	0.744	0.737	0.688	1.02	0.949	0.996	0.955	0.93	0.781	0.692	0.72	0.749	0.697
NCI-H3122	1.16	1	0.989	1.05	1.09	1.21	0.885	1.32	1.03	1.07	1.07	1.06	0.984	1.06	0.987	0.832	0.762	0.874	0.795	0.793
HCC-827	0.838	0.917	0.965	0.788	0.785	0.88	0.794	0.822	0.788	0.668	0.992	0.9	1	0.97	0.941	0.995	1.07	0.954	0.985	0.963
SK-LU-1	0.754	0.668	0.996	0.779	0.664	0.399	0.286	0.311	0.358	0.267	1.26	1.19	1.37	1.02	1.16	1.1	0.864	1.35	1.07	0.951
NCI-H1975	0.742	0.616	0.703	0.696	0.676	0.959	0.567	0.891	0.703	0.405	1.1	0.735	1.17	0.988	0.946	0.713	0.467	0.766	0.674	0.579
NCI-H1651	0.597	0.478	0.669	0.527	0.546	0.954	0.599	0.794	0.827	0.563	1.09	0.692	1.06	–	0.968	1.02	0.565	1.07	–	1.02
NCI-H441	0.824	0.563	1.18	0.605	0.616	0.603	0.59	0.678	0.573	0.506	0.663	0.438	0.643	0.649	0.517	0.832	0.61	1.01	0.709	0.645
LCLC-103H	0.725	0.716	0.891	0.714	0.748	0.494	0.393	0.5	0.49	0.398	1.14	1	1.02	1.22	1.01	0.953	0.917	1.05	1.02	0.932
LCLC-97TM1	0.751	0.739	1.04	0.939	0.656	0.574	0.433	0.671	0.56	0.601	0.222	0.214	0.221	–	0.243	0.258	0.302	0.254	–	0.276
NCI-H727	1.39	0.948	1.06	1.1	1.24	0.505	0.621	0.562	0.618	0.575	0.347	0.33	0.323	0.326	0.323	0.768	0.453	0.63	0.602	0.561
NCI-H1355	0.684	0.636	0.715	0.657	0.645	0.409	0.341	0.505	0.4	0.398	0.976	0.797	0.856	0.89	0.751	0.955	0.942	0.884	0.852	0.779
HOP-62	0.657	0.498	0.627	0.563	0.616	0.819	0.765	1.11	0.849	0.714	1.07	0.918	1.1	0.977	0.998	0.861	1.26	0.95	1.03	1.21
NCI-H2085	0.832	0.785	0.837	0.771	0.878	0.793	0.629	0.848	0.712	0.717	1.03	0.754	0.896	0.787	0.868	1.09	0.879	0.923	0.936	0.981
